The target of test [1] is T1, Full length human recombinant HDAC6 (Homo sapiens, UniProt Q9UBN7).
T1 construct: Full length human recombinant HDAC6 and HDAC11 proteins were expressed in baculoviral system
T1 sequence (Q9UBN7 1-1215): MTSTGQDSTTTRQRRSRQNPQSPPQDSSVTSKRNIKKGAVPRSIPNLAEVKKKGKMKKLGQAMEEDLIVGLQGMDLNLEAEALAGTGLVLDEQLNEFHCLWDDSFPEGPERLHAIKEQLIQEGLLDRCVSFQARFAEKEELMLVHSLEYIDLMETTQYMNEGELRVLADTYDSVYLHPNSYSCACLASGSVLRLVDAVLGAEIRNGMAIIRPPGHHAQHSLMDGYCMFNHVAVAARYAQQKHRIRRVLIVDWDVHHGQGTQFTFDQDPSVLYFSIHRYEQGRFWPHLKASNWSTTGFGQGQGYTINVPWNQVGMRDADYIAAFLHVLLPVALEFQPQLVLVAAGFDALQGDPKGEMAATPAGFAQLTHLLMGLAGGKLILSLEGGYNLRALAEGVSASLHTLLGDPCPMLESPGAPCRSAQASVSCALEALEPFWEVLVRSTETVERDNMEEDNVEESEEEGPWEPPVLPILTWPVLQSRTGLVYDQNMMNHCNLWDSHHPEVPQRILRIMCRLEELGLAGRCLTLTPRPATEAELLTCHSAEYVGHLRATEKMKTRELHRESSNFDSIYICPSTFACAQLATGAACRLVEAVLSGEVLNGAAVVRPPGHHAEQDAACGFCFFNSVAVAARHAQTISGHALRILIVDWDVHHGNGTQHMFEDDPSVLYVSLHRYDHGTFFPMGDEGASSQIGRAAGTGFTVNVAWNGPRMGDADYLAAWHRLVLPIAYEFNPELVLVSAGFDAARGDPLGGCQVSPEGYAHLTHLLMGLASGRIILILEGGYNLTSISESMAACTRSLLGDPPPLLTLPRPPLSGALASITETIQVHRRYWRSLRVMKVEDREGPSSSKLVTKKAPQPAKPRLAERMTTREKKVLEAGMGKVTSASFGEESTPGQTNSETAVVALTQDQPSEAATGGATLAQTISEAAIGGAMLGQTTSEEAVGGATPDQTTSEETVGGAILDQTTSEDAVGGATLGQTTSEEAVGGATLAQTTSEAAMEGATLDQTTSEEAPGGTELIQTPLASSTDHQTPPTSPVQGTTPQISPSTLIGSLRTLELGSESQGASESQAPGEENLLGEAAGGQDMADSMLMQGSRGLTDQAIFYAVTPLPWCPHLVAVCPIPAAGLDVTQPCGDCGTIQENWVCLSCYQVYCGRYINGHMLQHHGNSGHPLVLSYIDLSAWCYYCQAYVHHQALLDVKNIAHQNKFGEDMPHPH
The test is described as follows: In vitro histone deacetylase assay, enzymatic HDAC6 (electrophoretic mobility shift assay). The format is biochemical. Conditions: 1 nM HDAC6; 2 μM peptide substrate FAM-RHKK(Ac)—NH2; 25° C.; 12 concentrations; read-out: HDAC6 Activity Range (IC50). As for the experimental part:
(§1) The enzymatic HDAC6 and HDAC11 assays were performed using electrophoretic mobility shift assay. Full length human recombinant HDAC6 and HDAC11 proteins were expressed in baculoviral system and purified by affinity chromatography. The enzymatic reactions were assembled in 384 well plates in a total volume of 25 μL in a reaction buffer composing: 100 mM HEPES, pH 7.5, 25 mM KCl, 0.1% bovine serum albumin, 0.01% Triton X-100, 1% DMSO (from compounds) 2 μM of the fluorescently labeled peptide substrate and enzyme. The enzymes were added at a final concentration of 1 nM for HDAC6, and 10 nM for HDAC11. The peptide substrate FAM-RHKK(Ac)—NH2 was used for HDAC6, and FAM-RHKK(tri-fluor-Ac)—NH2 for HDAC11. The compounds were tested at 12 concentrations spaced by 3× dilution intervals. Negative control samples (0%-inhibition in the absence of inhibitor) and positive control samples (100%-inhibition) were assembled in replicates of four in each assay plate. The reactions were incubated at 25° C. and quenched by the addition of 45 μL of termination buffer (100 mM HEPES, pH 7.5, 0.01% Triton X-100, 0.05% SDS).
(§2) The terminated assay plates were analyzed on LabChip® 3000 microfluidic electrophoresis instrument (Perkin Elmer/Caliper Life Sciences). The fluorescence intensity of the electrophoretically separated de-acetylated product and substrate peptide was measured. Activity in each sample was determined as the product to sum ratio (PSR): P/(S+P), where P is the peak height of the product peptide and S is the peak height of the substrate peptide. Percent inhibition (Pinh) is determined using following equation:
(§3) Pinh=(PSR0%−PSRinh)/(PSR0%−PSR100%)*100, where PSRinh is the product sum ratio in the presence of inhibitor, PSR0% is the average product sum ration in the absence of inhibitor and PSR100% is the average product sum ratio in 100%-inhibition control samples. The IC50 values of inhibitors were determined by fitting the %-inhibition curves with 4 parameter dose-response model using XLfit 4 software.
(§4) As set forth in Table-26 and Table-27, below, IC5o values are defined as follows: IC50≦0.1 μM (+++); IC50>0.1 μM and ≦0.5 μM (++); IC50>0.5 μM (+).
A general note: In EMSA bound probe runs differently from free probe, usually more slowly.

Test [2] concerns the target T2, Full length human recombinant HDAC11 (Homo sapiens, UniProt Q96DB2).
T2 construct: Full length human recombinant HDAC6 and HDAC11 proteins were expressed in baculoviral system
T2 sequence (Q96DB2 1-347): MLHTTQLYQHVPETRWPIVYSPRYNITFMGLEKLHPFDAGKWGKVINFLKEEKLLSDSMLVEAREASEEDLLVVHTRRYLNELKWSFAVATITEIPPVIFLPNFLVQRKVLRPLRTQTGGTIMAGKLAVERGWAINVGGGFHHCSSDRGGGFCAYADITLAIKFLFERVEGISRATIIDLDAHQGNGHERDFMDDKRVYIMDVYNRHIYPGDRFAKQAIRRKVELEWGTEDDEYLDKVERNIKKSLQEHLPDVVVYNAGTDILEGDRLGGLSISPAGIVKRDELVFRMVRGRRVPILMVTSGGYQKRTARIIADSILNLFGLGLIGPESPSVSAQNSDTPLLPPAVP
Briefly: In vitro histone deacetylase assay, enzymatic HDAC11 (electrophoretic mobility shift assay). The format is biochemical. Conditions: 10 nM HDAC11; 2 μM peptide substrate FAM-RHKK(tri-fluor-Ac)—NH2; 25° C.; 12 concentrations; read-out: HDAC11 Activity Range (IC50). As for the experimental part: as §1, §2, §3, §4

Bounds are passed on as bounds.

With `O=C(NO)c1ccc2c(c1)C[C@]1(CC2)CCN(c2cccnc2)C1=O` [Compound I-29, (R)—N-hydroxy-2′-oxo-1′-(pyridin-3-yl)-3,4-dihydro-1H-spiro[naphthalene-2,3′-pyrrolidine]-7-carboxamide], the IC50 (commonly the concentration at which inhibition is half-maximal) in test [1] is not above 100 nM; in test [2], more than 500 nM.

For the molecule `O=C(NO)c1ccc2c(c1)CC1(CC2)CCN(c2ccncc2)C1=O` (stereo not shown) [Compound I-30, N-hydroxy-2′-oxo-1′-(pyridin-4-yl)-3,4-dihydro-1H-spiro[naphthalene-2,3′-pyrrolidine]-7-carboxamide], the IC50 in test [1] was not above 100 nM; in test [2], more than 500 nM.

Consider `O=C(NO)c1ccc2c(c1)C[C@@]1(CC2)CCN(c2nc3ccccc3[nH]2)C1=O` [Compound I-31, (S)-1′-(1H-benzo[d]imidazol-2-yl)-N-hydroxy-2′-oxo-3,4-dihydro-1H-spiro[naphthalene-2,3′-pyrrolidine]-7-carboxamide], for which the IC50 was not above 100 nM in test [1] and more than 500 nM in test [2].

For the molecule `O=C(NO)c1ccc2c(c1)C[C@]1(CC2)CCN(c2nc3ccccc3[nH]2)C1=O` [Compound I-32, (R)-1′-(1H-benzo[d]imidazol-2-yl)-N-hydroxy-2′-oxo-3,4-dihydro-1H-spiro[naphthalene-2,3′-pyrrolidine]-7-carboxamide], the IC50 in test [1] was not above 100 nM; in test [2] it was more than 500 nM.

As to `COCCn1c(N2CC[C@@]3(CCc4ccc(C(=O)NO)cc4C3)C2=O)nc2ccccc21` [Compound I-33, (S)—N-hydroxy-1′-(1-(2-methoxyethyl)-1H-benzo[d]imidazol-2-yl)-2′-oxo-3,4-dihydro-1H-spiro[naphthalene-2,3′-pyrrolidine]-7-carboxamide], the IC50 is not above 100 nM in test [1] and more than 500 nM in test [2].

Turning to `COCCn1c(N2CC[C@]3(CCc4ccc(C(=O)NO)cc4C3)C2=O)nc2ccccc21` [Compound I-34, (R)—N-hydroxy-1′-(1-(2-methoxyethyl)-1H-benzo[d]imidazol-2-yl)-2′-oxo-3,4-dihydro-1H-spiro[naphthalene-2,3′-pyrrolidine]-7-carboxamide], the IC50 in test [1] and in test [2] was not above 100 nM in each case.

As to `O=C(NO)c1ccc2c(c1)C[C@@]1(CC2)CCN(Cc2ccccc2)C1=O` [Compound I-35, (S)-1′-benzyl-N-hydroxy-2′-oxo-3,4-dihydro-1H-spiro[naphthalene-2,3′-pyrrolidine]-7-carboxamide], the IC50 in test [1] was not above 100 nM; in test [2], more than 500 nM.

Take `O=C(NO)c1ccc2c(c1)C[C@]1(CC2)CCN(Cc2ccccc2)C1=O` [Compound I-36, (R)-1′-benzyl-N-hydroxy-2′-oxo-3,4-dihydro-1H-spiro[naphthalene-2,3′-pyrrolidine]-7-carboxamide]: the IC50 in test [1] is not above 100 nM; in test [2] it was 100 to 500 nM.

For `O=C(NO)c1ccc2c(c1)C[C@@]1(CC2)CCN(Cc2ccc(Cl)cc2)C1=O` [Compound I-37, (S)-1′-(4-chlorobenzyl)-N-hydroxy-2′-oxo-3,4-dihydro-1H-spiro[naphthalene-2,3′-pyrrolidine]-7-carboxamide], the IC50 in test [1] and in test [2] was not above 100 nM in each case.

With `O=C(NO)c1ccc2c(c1)C[C@]1(CC2)CCN(Cc2ccc(Cl)cc2)C1=O` [Compound I-38, (R)-1′-(4-chlorobenzyl)-N-hydroxy-2′-oxo-3,4-dihydro-1H-spiro[naphthalene-2,3′-pyrrolidine]-7-carboxamide], the IC50 was not above 100 nM in test [1] and more than 500 nM in test [2].

`O=C(NO)c1ccc2c(c1)C[C@@]1(CC2)CCN(Cc2ccc(Cl)cn2)C1=O` [Compound I-39, (S)-1′-((5-chloropyridin-2-yl)methyl)-N-hydroxy-2′-oxo-3,4-dihydro-1H-spiro[naphthalene-2,3′-pyrrolidine]-7-carboxamide]: the IC50 in test [1] is not above 100 nM; in test [2], more than 500 nM.

Take `O=C(NO)c1ccc2c(c1)C[C@]1(CC2)CCN(Cc2ccc(Cl)cn2)C1=O` [Compound I-40, (R)-1′-((5-chloropyridin-2-yl)methyl)-N-hydroxy-2′-oxo-3,4-dihydro-1H-spiro[naphthalene-2,3′-pyrrolidine]-7-carboxamide]: the IC50 in test [1] and in test [2] was not above 100 nM in each case.

Consider `O=C(NO)c1ccc2c(c1)C[C@@]1(CC2)CCN(Cc2ccc(F)cc2)C1=O` [Compound I-41, (S)-1′-(4-fluorobenzyl)-N-hydroxy-2′-oxo-3,4-dihydro-1H-spiro[naphthalene-2,3′-pyrrolidine]-7-carboxamide], for which the IC50 in test [1] is not above 100 nM; in test [2], more than 500 nM.

As to `O=C(NO)c1ccc2c(c1)C[C@]1(CC2)CCN(Cc2ccc(F)cc2)C1=O` [Compound I-42, (R)-1′-(4-fluorobenzyl)-N-hydroxy-2′-oxo-3,4-dihydro-1H-spiro[naphthalene-2,3′-pyrrolidine]-7-carboxamide], the IC50 in test [1] and in test [2] was not above 100 nM throughout.

Take `O=C(NO)c1ccc2c(c1)C[C@]1(CC2)CCN(c2ccccn2)C1=O` [Compound I-43, (R)—N-hydroxy-2′-oxo-1′-(pyridin-2-yl)-3,4-dihydro-1H-spiro[naphthalene-2,3′-pyrrolidine]-7-carboxamide]: the IC50 in test [1] was not above 100 nM; in test [2], more than 500 nM.

As for `O=C(NO)c1ccc2c(c1)C[C@@]1(CC2)CCN(c2ccccn2)C1=O` [Compound I-44, (S)—N-hydroxy-2′-oxo-1′-(pyridin-2-yl)-3,4-dihydro-1H-spiro[naphthalene-2,3′-pyrrolidine]-7-carboxamide], the figures for the IC50 in test [1] and in test [2] were not above 100 nM and more than 500 nM, respectively.

For the molecule `COCCn1c(CN2CC[C@@]3(CCc4ccc(C(=O)NO)cc4C3)C2=O)nc2ccccc21` [Compound I-45, (S)—N-hydroxy-1′-((1-(2-methoxyethyl)-1H-benzo[d]imidazol-2-yl)methyl)-2′-oxo-3,4-dihydro-1H-spiro[naphthalene-2,3′-pyrrolidine]-7-carboxamide], the IC50 in test [1] was not above 100 nM; in test [2], more than 500 nM.

The values above are taken from US9637453B2, “3-spirocyclic-6-hydroxamic acid tetralins as HDAC inhibitors” (Forma Therapeutics, Inc., priority 2015, dated 2017).
